Laboratory results from the supplement of paper PMC10307832.

Columns and labels:
Assay in all cases: relative viability (nuclei count vs DMSO), 5 days (fraction); higher = more cells survive
[1] = compound: CCN1C(=O)C2=CC(=C(N=C2N(C1=O)C3CC3)N)C(=O)N
Method in brief: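 Hoechst staining, done together with fixation and permeabilisation, marked nuclei for 4× imaging and MetaXpress counting. This followed 5 days without medium change after lung cancer cell lines, kept overnight at 37 °C in 1536-well plates, were pinned with five library-drug doses (not always all listed) spaced by √10 on vehicle-anchored plates. Viability is the ratio of treated-well to vehicle-well nuclei, expressed as a median across plates. Plates passed only at control CV below 25% with at least one doubling.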

[2] = compound: CCN1C(=O)C2=CC(=C(N=C2N(C1=O)C3CC3)N)C(=O)N + CC1(C)CCC(c2ccc(Cl)cc2)=C(CN2CCN(c3ccc(C(=O)NS(=O)(=O)c4ccc(N[C@H](CCN5CCOCC5)CSc5ccccc5)c(S(=O)(=O)C(F)(F)F)c4)cc3)CC2)C1 [Navitoclax] (partner 0.5 µM)
Method in brief: (§1)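 After 5 days of treatment, lung cancer cells in 1536-well plates were fixed and stained in a single step (final 0.05% Triton X-100, 1% formaldehyde, 1 ug/ml Hoechst) and their nuclei counted on 4× images. Treatment had been applied by pin tool the day after seeding as one drug alone or as a fixed anchor-drug dose with five library-drug doses (not always all listed) in √10 steps. Relative viability is the nuclei count of treated wells divided by that of vehicle wells, and values are medians of duplicate plates.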

[3] = compound: CCN1C(=O)C2=CC(=C(N=C2N(C1=O)C3CC3)N)C(=O)N + COc1cc2c(Oc3ccc(NC(=O)C4(C(=O)Nc5ccc(F)cc5)CC4)cc3F)ccnc2cc1OCCCN1CCOCC1 [Foretinib] (partner 0.25 µM)
Method in brief: as §1

[4] = compound: CCN1C(=O)C2=CC(=C(N=C2N(C1=O)C3CC3)N)C(=O)N + CS(=O)(=O)N1CCN(Cc2cc3nc(-c4cccc5[nH]ncc45)nc(N4CCOCC4)c3s2)CC1 [Pictilisib] (partner 1 µM)
Method in brief: as §1

[5] = compound: CCN1C(=O)C2=CC(=C(N=C2N(C1=O)C3CC3)N)C(=O)N + C[C@@H](Oc1cc(-c2cnn(C3CCNCC3)c2)cnc1N)c1c(Cl)ccc(F)c1Cl [Crizotinib] (partner 1 µM)
Method in brief: as §1

[6] = compound: CCN1C(=O)C2=CC(=C(N=C2N(C1=O)C3CC3)N)C(=O)N + Cc1nc(NC(=O)N2CCC[C@H]2C(N)=O)sc1-c1ccnc(C(C)(C)C(F)(F)F)c1 [Alpelisib] (partner 2 µM)
Method in brief: as §1

[7] = compound: CCN1C(=O)C2=CC(=C(N=C2N(C1=O)C3CC3)N)C(=O)N + CC(C)C[C@H](NC(=O)[C@H](Cc1ccccc1)NC(=O)c1cnccn1)B(O)O [Bortezomib] (partner 0.002 µM)
Method in brief: as §1

[8] = compound: CCN1C(=O)C2=CC(=C(N=C2N(C1=O)C3CC3)N)C(=O)N + C[C@]1(O)C[C@@H](c2nc(-c3ccc4ccc(-c5ccccc5)nc4c3)c3c(N)nccn32)C1 [Linsitinib] (partner 1 µM)
Method in brief: as §1

[9] = compound: CCN1C(=O)C2=CC(=C(N=C2N(C1=O)C3CC3)N)C(=O)N + O=C(c1cc(Cc2n[nH]c(=O)c3ccccc23)ccc1F)N1CCN(C(=O)C2CC2)CC1 [Olaparib] (partner 8 µM)
Method in brief: as §1

[10] = compound: CCN1C(=O)C2=CC(=C(N=C2N(C1=O)C3CC3)N)C(=O)N + CS(=O)(=O)CCNCc1ccc(-c2ccc3ncnc(Nc4ccc(OCc5cccc(F)c5)c(Cl)c4)c3c2)o1 [Lapatinib] (partner 2 µM)
Method in brief: as §1

Cell Line	relative viability ([1]; 0.253 µM)	relative viability ([1]; 0.8 µM)	relative viability ([1]; 2.53 µM)	relative viability ([1]; 8 µM)	relative viability ([2]; first compound 0.253 µM)	relative viability ([2]; first compound 0.8 µM)	relative viability ([2]; first compound 2.53 µM)	relative viability ([2]; first compound 8 µM)	relative viability ([3]; first compound 0.253 µM)	relative viability ([3]; first compound 0.8 µM)	relative viability ([3]; first compound 2.53 µM)	relative viability ([3]; first compound 8 µM)	relative viability ([4]; first compound 0.253 µM)	relative viability ([4]; first compound 0.8 µM)	relative viability ([4]; first compound 2.53 µM)	relative viability ([4]; first compound 8 µM)	relative viability ([5]; first compound 0.253 µM)	relative viability ([5]; first compound 0.8 µM)	relative viability ([5]; first compound 2.53 µM)	relative viability ([5]; first compound 8 µM)	relative viability ([6]; first compound 0.253 µM)	relative viability ([6]; first compound 0.8 µM)	relative viability ([6]; first compound 2.53 µM)	relative viability ([6]; first compound 8 µM)	relative viability ([7]; first compound 0.253 µM)	relative viability ([7]; first compound 0.8 µM)	relative viability ([7]; first compound 2.53 µM)	relative viability ([7]; first compound 8 µM)	relative viability ([8]; first compound 0.253 µM)	relative viability ([8]; first compound 0.8 µM)	relative viability ([8]; first compound 2.53 µM)	relative viability ([8]; first compound 8 µM)	relative viability ([9]; first compound 0.253 µM)	relative viability ([9]; first compound 0.8 µM)	relative viability ([9]; first compound 2.53 µM)	relative viability ([9]; first compound 8 µM)	relative viability ([10]; first compound 0.253 µM)	relative viability ([10]; first compound 0.8 µM)	relative viability ([10]; first compound 2.53 µM)	relative viability ([10]; first compound 8 µM)
Calu-6	0.963	1.01	0.902	0.905	0.828	0.822	0.826	0.883	0.892	0.809	0.845	0.803	0.925	0.819	0.923	1	0.808	0.81	0.721	0.805	1.03	0.876	0.866	0.925	1	0.954	1.02	0.958	0.924	0.946	0.869	0.866	0.554	0.573	0.582	0.566	1.06	1.05	0.957	0.997
EBC-1	0.932	1.02	0.979	1.03	0.441	0.43	0.451	0.378	0.105	0.114	0.104	0.119	0.35	0.352	0.335	0.494	0.163	0.184	0.208	0.218	0.84	0.77	0.78	0.834	0.496	0.5	0.489	0.61	0.851	0.938	0.808	0.886	0.7	0.695	0.618	0.777	0.186	0.204	0.206	0.211
